Tests used:
Type in all cases: functional
SK-MEL-2 = test: Antiproliferative activity against human SK-MEL-2 cells assessed as inhibition of cell growth measured after 48 hrs by SRB assay; conditions: SK-MEL-2, 48 h
IGROV-1 = test: Antiproliferative activity against human IGROV1 cells assessed as inhibition of cell growth measured after 48 hrs by SRB assay; conditions: IGROV-1, 48 h
NCI-H460 [1] = test: Antiproliferative activity against human NCI-H460 cells assessed as inhibition of cell growth at 10 uM measured after 48 hrs by SRB assay relative to control; conditions: NCI-H460, 48 h, read-out: GI
SF-539 = test: Antiproliferative activity against human SF539 cells assessed as inhibition of cell growth measured after 48 hrs by SRB assay; conditions: SF-539, 48 h
A498 [2] = test: Antiproliferative activity against human A498 cells assessed as inhibition of cell growth at 10 uM measured after 48 hrs by SRB assay relative to control; conditions: A498, 48 h, read-out: GI
RXF 393 [3] = test: Antiproliferative activity against human RXF393 cells assessed as inhibition of cell growth at 10 uM measured after 48 hrs by SRB assay relative to control; conditions: RXF 393, 48 h, read-out: GI
NCI/ADR-RES [4] = test: Antiproliferative activity against human NCI/ADR-RES cells assessed as inhibition of cell growth measured after 48 hrs by SRB assay
RXF 393 [5] = test: Antiproliferative activity against human RXF393 cells assessed as inhibition of cell growth measured after 48 hrs by SRB assay; conditions: RXF 393, 48 h
SK-MEL-28 = test: Antiproliferative activity against human SK-MEL-28 cells assessed as inhibition of cell growth measured after 48 hrs by SRB assay; conditions: SK-MEL-28, 48 h
HL-60(TB) [6] = test: Antiproliferative activity against human HL-60(TB) cells assessed as inhibition of cell growth measured after 48 hrs by SRB assay; conditions: HL-60, 48 h
CCRF-CEM = test: Antiproliferative activity against human CCRF-CEM cells assessed as inhibition of cell growth measured after 48 hrs by SRB assay
MDA-MB-231 = test: Antiproliferative activity against human MDA-MB-231 cells assessed as inhibition of cell growth measured after 48 hrs by SRB assay; conditions: MDA-MB-231, 48 h
HT-29 = test: Antiproliferative activity against human HT-29 cells assessed as inhibition of cell growth at 10 uM measured after 48 hrs by SRB assay relative to control; conditions: HT-29, 48 h, read-out: GI
MDA-MB-435 = test: Antiproliferative activity against human MDA-MB-435 cells assessed as inhibition of cell growth measured after 48 hrs by SRB assay; conditions: MDA-MB-435, 48 h
SK-MEL-5 = test: Antiproliferative activity against human SK-MEL-5 cells assessed as inhibition of cell growth at 10 uM measured after 48 hrs by SRB assay relative to control; conditions: SK-MEL-5, 48 h, read-out: GI
OVCAR-5 = test: Antiproliferative activity against human OVCAR5 cells assessed as inhibition of cell growth measured after 48 hrs by SRB assay; conditions: OVCAR-5, 48 h
A498 [7] = test: Antiproliferative activity against human A498 cells assessed as inhibition of cell growth measured after 48 hrs by SRB assay; conditions: A498, 48 h
LOX IMVI = test: Antiproliferative activity against human LOXIMVI cells assessed as inhibition of cell growth measured after 48 hrs by SRB assay
SNB-75 = test: Antiproliferative activity against human SNB75 cells assessed as inhibition of cell growth measured after 48 hrs by SRB assay; conditions: SNB-75, 48 h
ACHN = test: Antiproliferative activity against human ACHN cells assessed as inhibition of cell growth measured after 48 hrs by SRB assay
U-251 = test: Antiproliferative activity against human U251 cells assessed as inhibition of cell growth measured after 48 hrs by SRB assay; conditions: U-251, 48 h
MOLT-4 = test: Antiproliferative activity against human MOLT4 cells assessed as inhibition of cell growth at 10 uM measured after 48 hrs by SRB assay relative to control; conditions: MOLT-4, 48 h, read-out: GI
MDA-MB-468 = test: Antiproliferative activity against human MDA-MB-468 cells assessed as inhibition of cell growth measured after 48 hrs by SRB assay; conditions: MDA-MB-468, 48 h
UACC-62 [8] = test: Antiproliferative activity against human UACC62 cells assessed as inhibition of cell growth at 10 uM measured after 48 hrs by SRB assay relative to control; conditions: UACC-62, 48 h, read-out: GI
NCI-H460 [9] = test: Antiproliferative activity against human NCI-H460 cells assessed as inhibition of cell growth measured after 48 hrs by SRB assay; conditions: NCI-H460, 48 h
OVCAR-3 = test: Antiproliferative activity against human OVCAR3 cells assessed as inhibition of cell growth at 10 uM measured after 48 hrs by SRB assay relative to control; conditions: OVCAR-3, 48 h, read-out: GI
HL-60(TB) [10] = test: Antiproliferative activity against human HL-60(TB) cells assessed as inhibition of cell growth at 10 uM measured after 48 hrs by SRB assay relative to control; conditions: HL-60, 48 h, read-out: GI
UACC-62 [11] = test: Antiproliferative activity against human UACC62 cells assessed as inhibition of cell growth measured after 48 hrs by SRB assay; conditions: UACC-62, 48 h
HOP-62 = test: Antiproliferative activity against human HOP62 cells assessed as inhibition of cell growth measured after 48 hrs by SRB assay; conditions: HOP-62, 48 h
COLO 205 = test: Antiproliferative activity against human COLO205 cells assessed as inhibition of cell growth at 10 uM measured after 48 hrs by SRB assay relative to control; conditions: COLO 205, 48 h, read-out: GI
NCI/ADR-RES [12] = test: Antiproliferative activity against human NCI-ADR-RES cells assessed as inhibition of cell growth at 10 uM measured after 48 hrs by SRB assay relative to control; conditions: read-out: GI
EKVX = test: Antiproliferative activity against human EKVX cells assessed as inhibition of cell growth measured after 48 hrs by SRB assay
SN12C = test: Antiproliferative activity against human SN12C cells assessed as inhibition of cell growth at 10 uM measured after 48 hrs by SRB assay relative to control; conditions: read-out: GI
CAKI-1 = test: Antiproliferative activity against human CAKI-1 cells assessed as inhibition of cell growth at 10 uM measured after 48 hrs by SRB assay relative to control; conditions: CAKI-1, 48 h, read-out: GI
KM12 = test: Antiproliferative activity against human KM12 cells assessed as inhibition of cell growth at 10 uM measured after 48 hrs by SRB assay relative to control; conditions: KM12, 48 h, read-out: GI
OVCAR-8 = test: Antiproliferative activity against human OVCAR8 cells assessed as inhibition of cell growth measured after 48 hrs by SRB assay; conditions: OVCAR-8, 48 h

| SMILES | GI50 (SK-MEL-2) [nM] | GI50 (IGROV-1) [nM] | inhibition of growth at 10 µM (NCI-H460 [1]) [%] | GI50 (SF-539) [nM] | inhibition of growth at 10 µM (A498 [2]) [%] | inhibition of growth at 10 µM (RXF 393 [3]) [%] | GI50 (NCI/ADR-RES [4]) [nM] | GI50 (RXF 393 [5]) [nM] | GI50 (SK-MEL-28) [nM] | GI50 (HL-60(TB) [6]) [nM] | GI50 (CCRF-CEM) [nM] | GI50 (MDA-MB-231) [nM] | inhibition of growth at 10 µM (HT-29) [%] | GI50 (MDA-MB-435) [nM] | inhibition of growth at 10 µM (SK-MEL-5) [%] | GI50 (OVCAR-5) [nM] | GI50 (A498 [7]) [nM] | GI50 (LOX IMVI) [nM] | GI50 (SNB-75) [nM] | GI50 (ACHN) [nM] | also measured |
| --- | --- | --- | --- | --- | --- | --- | --- | --- | --- | --- | --- | --- | --- | --- | --- | --- | --- | --- | --- | --- | --- |
| O=C1CC(c2ccccc2)Cc2nc3ccc(Br)cc3cc21 (configuration not stated) | 238 | 423 | 95.4 | 241 | 112 | 71.6 | 66.9 | 208 | 954 | 214 | 49.8 | 598 | 97.8 | 27.1 | 97.9 | 825 | 74.5 | 707 | 210 | 583 | GI50 (U-251): 553 nM; inhibition of growth at 10 µM (MOLT-4): 89.5%; GI50 (MDA-MB-468): 2840 nM; inhibition of growth at 10 µM (UACC-62 [8]): 63.8%; GI50 (NCI-H460 [9]): 344 nM; inhibition of growth at 10 µM (OVCAR-3): 128%; inhibition of growth at 10 µM (HL-60(TB) [10]): 128%; GI50 (UACC-62 [11]): 444 nM; GI50 (HOP-62): 354 nM; inhibition of growth at 10 µM (COLO 205): 136%; inhibition of growth at 10 µM (NCI/ADR-RES [12]): 82.9%; GI50 (EKVX): 756 nM; inhibition of growth at 10 µM (SN12C): 67.8%; inhibition of growth at 10 µM (CAKI-1): 69.3%; inhibition of growth at 10 µM (KM12): 91.1%; GI50 (OVCAR-8): 461 nM |
| O=C1CC(c2ccccc2)Cc2nc3ccc(Cl)cc3cc21 (configuration not stated) | 320 | 375 | 96.7 | 219 | 117 | 78.2 | 64.4 | 195 | 1690 | 211 | 40 | 617 | 95.6 | 26.6 | 114 | 1020 | 87 | 558 | 215 | 508 | GI50 (U-251): 729 nM; inhibition of growth at 10 µM (MOLT-4): 93.2%; GI50 (MDA-MB-468): 2470 nM; inhibition of growth at 10 µM (UACC-62 [8]): 70.7%; GI50 (NCI-H460 [9]): 345 nM; inhibition of growth at 10 µM (OVCAR-3): 129%; inhibition of growth at 10 µM (HL-60(TB) [10]): 121%; GI50 (UACC-62 [11]): 333 nM; GI50 (HOP-62): 428 nM; inhibition of growth at 10 µM (COLO 205): 132%; inhibition of growth at 10 µM (NCI/ADR-RES [12]): 92%; GI50 (EKVX): 607 nM; inhibition of growth at 10 µM (SN12C): 71.8%; inhibition of growth at 10 µM (CAKI-1): 70.8%; inhibition of growth at 10 µM (KM12): 98.3%; GI50 (OVCAR-8): 534 nM |

Reference: ChEMBL document CHEMBL4627344, “Synthesis, biological evaluation and virtual screening of some acridone derivatives as potential anticancer agents” (2020)
